Earlier results as cited in article PMC5580352 (Journal of medicinal chemistry, 2017).

Conditions: 1 week of administration of 20 mg/kg

CCCC[S+]([O-])c1sc2nc(-c3cccs3)cc(-c3ccccc3)c2c1N (stereo not shown) [Compound 1, 2-(butylsulfinyl)-4-phenyl-6-(thiophen-2-yl)thieno[2,3-b]pyridin-3-amine]
adverse effects: no adverse effects on weight, activity, blood counts or blood chemistry
